Measurements reported in patent publication US8642631B2, “Methods of treating mammals with eustachian tube dysfunctions” (University of Melbourne, priority 2008, dated 2014).

Test system: Eustachian tube
Assay: Eustachian tube function test (middle ear pressure equalisation on reflex swallowing) in anaesthetised rats
Format: in vivo, Sprague Dawley rats
Protocol: Animal experiments were conducted on female and male adult Sprague Dawley rats weighing 250-450 g. Up to five animals were used in each section of the experiment. In this figure, a small tube is glued into the tympanic bulla of an anaesthetised rat (A). The tube is connected to a syringe pump (B), a pressure transducer (C) and data recorder (D) and to a manometer (E). The syringe pump is used to increase pressure within the middle ear. […] From this it can be seen that intra-bulla pressure was increased from ambient (Amb) to around 130 mm of water. […] The overall pressure drop is a measure of the efficiency of pressure equalisation via the Eustachian tube. Each experiment consisted of a series of active Eustachian tube function tests preceded by a passive run. In the passive run pressure was increased in the bulla by a continuous air flow (30 ml/min) until the Eustachian tube opened spontaneously. While the air continued to flow, the pressure in the middle ear decreased until the Eustachian tube closed. Now the pressure in the middle ear, due to continued air flow, could build up again until the Eustachian tube opened a second time. This enabled the measurement of the passive opening and closing pressures of the Eustachian tube. The active runs consisted of three preceding control runs (C1-C3) followed by three runs assessing the effect of intervention S1-S6. At the start of each active run the pressure in the bulla was raised to 75% of the passive opening pressure of the Eustachian tube. At this point the air flow into the bulla was stopped. […] This caused reflex swallowing, which was accompanied by a momentary opening of the Eustachian tube, and reduced middle ear pressure step by step. In each active run 10 consecutive swallows were recorded. […]

## CNCCc1ccccn1 [betahistine, N-methyl-2-pyridineethanaamine]
Anaesthetised rats, betahistine applied within the tympanic bulla and flushed through the Eustachian tube, FIG. 4
  increase in efficiency of Eustachian tube pressure equalisation: around 30%
Anaesthetised rats, systemic (intraperitoneal) injection, cumulative doses 1, 5 and 10 μl, total 16 μl, FIG. 5
  effect on ET function: no significant effect
Healthy anaesthetised rats, betahistine diHCl 5 μl of 8 mg/mL (Vasomotal) applied to the nasopharynx, normalized to control measurement C3, FIG. 3
  increase in efficiency of pressure equalisation through the Eustachian tube: 31%
